Experimental findings from US6875769B2, “Substituted6,6-hetero-bicyclicderivatives” (Pfizer Inc., priority 1997, dated 2005) are described below.

Broadly, the melting point is the temperature, or range, at which the solid turns liquid.

For the compound `CCC(CC)Oc1cc(C)nc2c1c(=O)[nH]c(=O)n2-c1c(C)cc(C)cc1C` [Example 18, 5-(1-Ethyl-propoxy)-7-methyl-1-(2,4,6-trimethyl-phenyl)-1H-pyrido[2,3-d]pyrimidine-2,4-dione], the melting point lay within 105 to 107 °C.

The compound `CCC(CC)Oc1cc(C)nc2c1c(Cl)nc(=O)n2-c1c(C)cc(C)cc1C` [Example 17, 4-Chloro-5-(1-ethyl-propoxy)-7-methyl-1-(2,4,6-trimethyl-phenyl)-1H-pyrido[2,3-d]pyrimidin-2-one] registered a melting point of 125 to 127 °C.

The compound `CCC(CC)Nc1cc(C)nc2c1CCC(=O)N2c1c(C)cc(C)cc1C` [Example 12, 5-(1-Ethyl-propylamino)-7-methyl-1-(2,4,6-trimethyl-phenyl)-3,4-dihydro-1H-[1,8]naphthyridin-2-one] yielded a melting point of 124 to 126 °C.
